According to ChEMBL document CHEMBL1201862, “PubChem BioAssay data set” (2004):
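Tested at 5 concentrations; 48 h exposure; 96-well plates; endpoints linearly interpolated, else capped at highest concentration. At the GI50, growth is halved.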 Calls of active or inactive are those of the source. No stated cut-off is given here; in the data, active = GI50 up to about 1.1 µM and inactive = higher.

Assays:
Assay in all cases: DTP human tumour cell line panel, 48 h
[1] = system: 786-0
[2] = system: A549
[3] = system: ACHN
[4] = system: COLO 205
[5] = system: DMS-114
[6] = system: HCT-116
[7] = system: HOP-92
[8] = system: K562
[9] = system: NCI-H226
[10] = system: NCI-H460
[11] = system: OVCAR-8
[12] = system: SF-295
[13] = system: SK-MEL-28
[14] = system: SK-MEL-2
[15] = system: SNB-19
[16] = system: TK-10
[17] = system: UACC-62
[18] = system: UO-31

## CC(=O)OCC1OC(N2C(=O)/C(=N\NC(N)=S)c3ccc([N+](=O)[O-])cc32)C(OC(C)=O)C1OC(C)=O (centres undefined)
[1]
  GI50: 19.8 µM (inactive)
[2]
  GI50: 40.8 µM (inactive)
[3]
  GI50: 30.7 µM (inactive)
[4]
  GI50: 31 µM (inactive)
[5]
  GI50: 23.1 µM (inactive)
[6]
  GI50: 13.7 µM (inactive)
[7]
  GI50: 43.4 µM (inactive)
[8]
  GI50: 18.7 µM (inactive)
[9]
  GI50: 28.6 µM (inactive)
[10]
  GI50: 20.1 µM (inactive)
[11]
  GI50: 19.4 µM (inactive)
[12]
  GI50: 29.1 µM (inactive)
[13]
  GI50: 29.2 µM (inactive)
[14]
  GI50: 20.7 µM (inactive)
[15]
  GI50: 62.5 µM (inactive)
[16]
  GI50: > 100 µM (inactive)
[17]
  GI50: 13.9 µM (inactive)

## CCOC(=O)CCc1c(C)c2c(OC(C)=O)cc(OC(C)=O)cc2oc1=O
[1]
  GI50: 78.7 µM (inactive)
[2]
  GI50: 47.2 µM (inactive)
[3]
  GI50: 28.1 µM (inactive)
[4]
  GI50: > 100 µM (inactive)
[5]
  GI50: 23.4 µM (inactive)
[6]
  GI50: 62.1 µM (inactive)
[7]
  GI50: 6.9 µM (inactive)
[9]
  GI50: > 10 µM (inactive)
[10]
  GI50: 32.5 µM (inactive)
[11]
  GI50: 69.3 µM (inactive)
[12]
  GI50: 56.5 µM (inactive)
[13]
  GI50: 42 µM (inactive)
[14]
  GI50: 28.4 µM (inactive)
[15]
  GI50: 65.9 µM (inactive)
[16]
  GI50: > 100 µM (inactive)
[18]
  GI50: 46.2 µM (inactive)

## CC1=C(C(=O)Nc2cc(F)c(F)cc2F)C(c2ccc(N(C)C)cc2)C(C(=O)Nc2cc(F)c(F)cc2F)=C(C)N1
[1]
  GI50: 27.1 µM (inactive)
[2]
  GI50: 16.4 µM (inactive)
[3]
  GI50: 19.4 µM (inactive)
[4]
  GI50: 43.2 µM (inactive)
[5]
  GI50: 17.2 µM (inactive)
[7]
  GI50: 0.53 µM (active)
[8]
  GI50: 23.6 µM (inactive)
[9]
  GI50: 20.6 µM (inactive)
[10]
  GI50: 30.3 µM (inactive)
[11]
  GI50: 29.6 µM (inactive)
[12]
  GI50: 24.3 µM (inactive)
[13]
  GI50: 30.5 µM (inactive)
[14]
  GI50: 28.8 µM (inactive)
[15]
  GI50: 38.7 µM (inactive)
[16]
  GI50: 32.7 µM (inactive)
[18]
  GI50: 17.1 µM (inactive)

## COc1ccc(C(=O)Nc2ccn(CCOC(=O)c3ccc(OC)cc3)c(=O)n2)cc1
[1]
  GI50: > 100 µM (inactive)
[2]
  GI50: > 100 µM (inactive)
[3]
  GI50: > 100 µM (inactive)
[4]
  GI50: > 100 µM (inactive)
[5]
  GI50: > 100 µM (inactive)
[6]
  GI50: > 100 µM (inactive)
[7]
  GI50: 63 µM (inactive)
[8]
  GI50: > 100 µM (inactive)
[9]
  GI50: > 100 µM (inactive)
[10]
  GI50: > 100 µM (inactive)
[11]
  GI50: > 100 µM (inactive)
[12]
  GI50: 58.9 µM (inactive)
[13]
  GI50: > 100 µM (inactive)
[14]
  GI50: 47.3 µM (inactive)
[16]
  GI50: > 100 µM (inactive)
[17]
  GI50: > 100 µM (inactive)
[18]
  GI50: 76.2 µM (inactive)

## C=CCN1C(=O)CS/C1=N\NC(=O)c1c(C)nc2sccn12
[1]
  GI50: > 100 µM (inactive)
[2]
  GI50: > 100 µM (inactive)
[3]
  GI50: > 100 µM (inactive)
[4]
  GI50: > 100 µM (inactive)
[5]
  GI50: > 100 µM (inactive)
[6]
  GI50: > 100 µM (inactive)
[7]
  GI50: > 100 µM (inactive)
[8]
  GI50: > 100 µM (inactive)
[9]
  GI50: > 100 µM (inactive)
[10]
  GI50: > 100 µM (inactive)
[11]
  GI50: > 100 µM (inactive)
[12]
  GI50: > 100 µM (inactive)
[13]
  GI50: > 100 µM (inactive)
[14]
  GI50: > 100 µM (inactive)
[15]
  GI50: > 100 µM (inactive)
[16]
  GI50: > 100 µM (inactive)
[17]
  GI50: > 100 µM (inactive)

## CCNC(=O)/C=C/CCC#Cc1ccc(-c2ccc(-c3cccs3)s2)s1
[1]
  GI50: > 100 µM (inactive)
[2]
  GI50: > 100 µM (inactive)
[3]
  GI50: > 100 µM (inactive)
[4]
  GI50: 1.63 µM (inactive)
[5]
  GI50: > 100 µM (inactive)
[6]
  GI50: > 100 µM (inactive)
[7]
  GI50: > 100 µM (inactive)
[9]
  GI50: > 100 µM (inactive)
[10]
  GI50: > 100 µM (inactive)
[11]
  GI50: > 100 µM (inactive)
[12]
  GI50: > 100 µM (inactive)
[14]
  GI50: > 100 µM (inactive)
[15]
  GI50: > 100 µM (inactive)
[16]
  GI50: > 100 µM (inactive)
[17]
  GI50: 2.9 µM (inactive)
[18]
  GI50: > 100 µM (inactive)
